The numbers were not newly measured in patent publication US20030236237A1, “Method of treating symptoms of hormonal variation, including hot flashes, using tachykinin receptor antagonist” (priority 2000, published 2003), which cites them from elsewhere.

Read-outs that look alike come from different tables or passages of the source.

The subject of data set [1] is hot flashes. The following applies: transdermal; tamoxifen-treated women.
For data set [2], the system named is hot flashes. The following applies: low dose oral; men and women; short term study.
For data set [3], the system named is neurokinin B gene expression in the hypothalamic arcuate nucleus (ArN). The following applies: ovariectomized rat treated with estrogen.
Data set [4] shares this test system. The following applies: ovariectomized primate treated with estrogen.
For a further data set, the system named is hot flash. The note with it: humans.

As to `Clc1cccc(Cl)c1N=C1NCCN1` [clonidine], the “frequency and severity of hot flashes” value in the data set with hot flashes [1] is “only a moderate effect”. As for `CC(=O)O[C@]1(C(C)=O)CC[C@H]2[C@@H]3C=C(C)C4=CC(=O)CC[C@]4(C)[C@H]3CC[C@@]21C` [megestrol acetate], the “frequency of hot flashes” value with hot flashes [2] was “shown to reduce the frequency of hot flashes”. On to estrogen, for which the “ArN changes (increased NKB gene expression)” value in data set [3] and in data set [4] was “completely prevents” each time. Take substance P [substance-P]: the “clinical hot flash after systemic injection” value in the data set on hot flash is on record as “results in a clinical hot flash”.
